Test results reported in article PMC1079881, “Differential modulation of microglia superoxide anion and thromboxane B2 generation by the marine manzamines” (BMC Pharmacology, 2005).
Read-outs that look alike come from different tables or passages of the source.

Columns and labels:
[1] = test system: LPS-induced microglia PGE2 synthesis; settings: cited from earlier work
[2] = test system: LPS-activated rat neonatal microglia; assay: PMA-stimulated TXB2 generation by LPS-activated rat neonatal microglia (immunoassay); type: cell-based; settings: for IC50: PMA 1 μM, 70 min, LPS 0.3 ng/mL 17 h, manzamine added 15 min before
Method: (§1) All experiments were performed with adherence to the National Institutes of Health guidelines on the use of experimental animals and with protocols approved by Midwestern University's Research and Animal Care Committee. To isolate rat neonatal microglia, cerebral cortices of 1–2 day-old Sprague-Dawley rats purchased from Harlan (Indianapolis, IN) were surgically removed and placed in cold DMEM + 10% FBS + 120 U/ml P and 12 μg/ml S, the meninges carefully removed, and brain tissue minced and dissociated with trypsin-EDTA at 36°C for 3–5 min. The mixed astroglial cell suspension was plated in either 75- or 162-cm^2 vented cell culture flasks with DMEM medium supplemented with 10% FBS + 120 U/ml P + 12 μg/ml S and grown in a humidified 5% CO2 incubator at 36°C for 12–14 days. […] Microglia were characterized as described earlier.
(§2) To study the effects of manzamines A, B, C, D, E and F on the generation of TXB2 and O2^-, rat neonatal microglia (2 × 10^5 cells/24-well cell culture clusters) were treated to the following protocol. Seventeen hours prior to the experiments, microglia cells were treated with LPS (0.3 ng/ml) in a final volume of 1 ml of DMEM supplemented with 10% FBS + 120 U/ml P + 12 μg/ml. […] O2^-, TXB2 and lactate dehydrogenase (LDH) release were assayed as described below.
(§3) Following the incubation of LPS-activated microglia with HBSS, manzamines or vehicle as explained above, PMA- (1 μM) or OPZ- (0.5 mg/mL)triggered TXB2 generation in the culture supernatants was measured using immunoassays (Cayman Chemical, Ann Arbor, MI) as indicated by the manufacturer's protocol. Results were expressed as pg/mL produced after 70 min of PMA or OPZ stimulation.

[3] = test system: LPS-activated rat neonatal microglia; assay: OPZ-stimulated TXB2 generation by LPS-activated rat neonatal microglia (immunoassay); type: cell-based; settings: for IC50 / inhibition at 10 µM: Rattus norvegicus, Microglia; for IC50: OPZ 0.5 mg/mL, 70 min, LPS 0.3 ng/mL 17 h; for inhibition at 10 µM / OPZ-stimulated TXB2 released / OPZ-stimulated TXB2 generation, % of control: at 10 μM
Method: as §1, §2, §3

[4] = test system: LPS-activated rat neonatal microglia; assay: PMA-stimulated O2^- generation by LPS-activated rat neonatal microglia (SOD-inhibitable FCC reduction); type: cell-based; settings: for IC50: PMA 1 μM, 70 min, LPS 0.3 ng/mL 17 h
Method: as §1, §2
(§4) O2^- generation was determined by the SOD-inhibitable reduction of FCC [23]. […] All experimental treatments were run in triplicate and in a final volume of 1 ml. Changes in FCC absorbance were measured at 550 nm using a Beckman DU-650 spectrophotometer.

[5] = test system: LPS-activated rat neonatal microglia; assay: OPZ-stimulated O2^- generation by LPS-activated rat neonatal microglia (SOD-inhibitable FCC reduction); type: cell-based; settings: for IC50: OPZ 0.5 mg/mL, 70 min, LPS 0.3 ng/mL 17 h; for effect on OPZ-stimulated O2^- generation: even at 10 μM
Method: as §1, §2, §4

[6] = molecular target: hypoxanthine-xanthine oxidase system (Homo sapiens, UniProt P47989); assay: Cell-free O2^- generation by hypoxanthine-xanthine oxidase system (scavenging test); type: biochemical; settings: for O2^- generated by hypoxanthine-xanthine oxidase system: control (DMSO) 12 ± 1.1, test concentration not given
Method: A standard hypoxanthine-xanthine oxidase system was used as a cell-free source of O2^-. O2^- was generated by incubation of purified xanthine oxidase (0.02 Units/ml) with hypoxanthine (1.5 mM) at 37°C [21]. O2^- formation was assessed spectrophotometrically as the increase in absorbance at 550 nm associated with the SOD (30 U/mL)-inhibitable reduction FCC (50 μM) as described above for rat microglia O2^- generation and expressed in nmoles/30 minutes.

activated rat microglia = settings: read-out: IC50, PMA-stimulated O2^- generation in microglia; cited from earlier work
[7] = test system: LPS-activated rat neonatal microglia; assay: LDH release (cytotoxicity) from LPS-activated rat neonatal microglia; type: cell-based
Method: as §2, with “μg/ml. Thereafter the media was removed and replaced with 1 ml warm HBSS, one of the manzamines (0.1–10 μM final concentration) or vehicle (DMSO) was added, and the microglia incubated for fifteen minutes in a humidified 5% CO2 incubator at 35.9°C. After the fifteen minute preincubation period with either manzamines or vehicle, PMA (1 μM) or OPZ (0.5 mg/mL) was added and microglia incubated for 70 minutes in a humidified 5% CO2 incubator at 35.9°C in the presence of the manzamines or vehicle.” for “μg/ml.”
Lactate dehydrogenase (LDH) release from microglia was determined spectrophotometrically as described elsewhere. Microglia LDH release was expressed as a percentage of total LDH. Total LDH resulted from 0.1% Triton X-100-lysed microglia cells (intracellular LDH) plus LDH released to the extracellular medium.

[8] = read-out: apparent IC50, LPS-induced microglia PGE2 synthesis

hypoxanthine-xanthine oxidase system, sequence (P47989 whole entry): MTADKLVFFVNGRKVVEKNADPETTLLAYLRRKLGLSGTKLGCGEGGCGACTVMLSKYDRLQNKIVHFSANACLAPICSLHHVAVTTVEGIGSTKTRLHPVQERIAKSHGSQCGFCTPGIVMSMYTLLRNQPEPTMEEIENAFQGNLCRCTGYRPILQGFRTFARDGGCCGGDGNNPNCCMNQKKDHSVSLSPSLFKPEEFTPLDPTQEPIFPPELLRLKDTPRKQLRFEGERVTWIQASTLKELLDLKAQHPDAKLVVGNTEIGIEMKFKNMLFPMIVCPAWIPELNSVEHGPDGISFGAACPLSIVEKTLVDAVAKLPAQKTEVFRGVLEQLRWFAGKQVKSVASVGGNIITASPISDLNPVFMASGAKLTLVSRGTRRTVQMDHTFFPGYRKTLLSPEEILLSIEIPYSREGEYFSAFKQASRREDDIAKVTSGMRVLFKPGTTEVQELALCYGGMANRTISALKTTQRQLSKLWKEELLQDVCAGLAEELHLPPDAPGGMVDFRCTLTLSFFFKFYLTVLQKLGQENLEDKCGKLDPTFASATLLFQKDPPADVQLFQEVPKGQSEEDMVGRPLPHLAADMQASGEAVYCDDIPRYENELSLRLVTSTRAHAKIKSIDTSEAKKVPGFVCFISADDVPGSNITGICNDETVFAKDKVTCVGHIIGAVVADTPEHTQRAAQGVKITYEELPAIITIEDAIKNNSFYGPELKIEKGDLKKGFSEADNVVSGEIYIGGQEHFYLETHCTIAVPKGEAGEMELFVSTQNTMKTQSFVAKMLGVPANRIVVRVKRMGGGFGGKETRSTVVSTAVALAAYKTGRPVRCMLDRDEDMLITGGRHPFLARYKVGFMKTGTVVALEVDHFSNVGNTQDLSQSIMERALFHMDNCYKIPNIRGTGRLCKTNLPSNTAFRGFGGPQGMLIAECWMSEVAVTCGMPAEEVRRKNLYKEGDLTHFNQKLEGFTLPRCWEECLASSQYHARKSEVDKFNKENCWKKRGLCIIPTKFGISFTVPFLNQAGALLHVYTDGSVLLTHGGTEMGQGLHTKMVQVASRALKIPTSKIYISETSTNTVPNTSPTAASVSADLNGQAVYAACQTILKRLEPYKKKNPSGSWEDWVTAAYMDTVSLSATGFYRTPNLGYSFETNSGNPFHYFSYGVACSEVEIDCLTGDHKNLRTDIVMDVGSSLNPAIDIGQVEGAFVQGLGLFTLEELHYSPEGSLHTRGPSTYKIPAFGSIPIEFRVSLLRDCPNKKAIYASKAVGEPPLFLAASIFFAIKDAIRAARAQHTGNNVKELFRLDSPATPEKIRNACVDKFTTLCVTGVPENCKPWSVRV

Row | Molecule | IC50 ([2]; Rattus norvegicus, Microglia) [µM] | PMA-stimulated TXB2 released ([2]; at 10 μM) | IC50 [3] [µM] | OPZ-stimulated TXB2 released [3] | IC50 ([4]; Rattus norvegicus, Microglia) [µM] | PMA-stimulated O2^- released ([4]; at 10 μM) | IC50 ([5]; Rattus norvegicus, Microglia) [µM] | O2^- generated by hypoxanthine-xanthine oxidase system [6] [nmoles/30 min] | PMA-stimulated TXB2 release, % of control ([2]; at 10 μM) | other results
1 | CC(C(=O)O)c1ccc(-c2ccccc2)c(F)c1 (centres unmarked) [flurbiprofen] | – | – | – | – | – | – | – | – | – | IC50 ([1]; COX-1 inhibitor, read-out: apparent IC50, LPS-induced microglia PGE2 synthesis): 0.1 µM
2 | CS(=O)(=O)Nc1ccc([N+](=O)[O-])cc1OC1CCCCC1 [NS-398] | – | – | – | – | – | – | – | – | – | IC50 [1, 8]: 0.001 to 0.005 µM
3 | O=C1CCCN2[C@@H](CC1)C[C@]13CN4CCCC/C=C\CC[C@](O)(C=C(c5nccc6c5[nH]c5ccccc56)[C@@H]1CC4)[C@H]23 [MZE, manzamine E] | > 10 | 1,614 ± 628 pg of TXB2 per 200,000 microglia per 70 min | > 10 | 2,594 ± 646 pg of TXB2 per 200,000 microglia per 70 min | > 10 | 8.5 ± 2.1 nmol of O2^- per 200,000 microglia per 70 min | > 10 | 16.3 ± 2.2 | – | inhibition at 10 µM ([2]; Rattus norvegicus, Microglia, at 10 μM, read-out: maximum inhibition of PMA-stimulated TXB2 generation): 49.4%; inhibition at 10 µM [3]: 43.1%; inhibition at 10 µM ([4]; Rattus norvegicus, Microglia, at 10 μM): 26.3%; effect on OPZ-stimulated O2^- generation [5]: did not affect
4 | CCCn1cnc2c1c(=O)n(CCCCC(C)=O)c(=O)n2C [propentofylline] | – | – | – | – | – | – | – | – | – | IC50 (activated rat microglia): > 100 µM
5 | O[C@]12C=C(C3NCCc4c3[nH]c3ccccc43)[C@@H]3CCN(CCCC/C=C\CC1)C[C@@]31C[C@@H]3/C=C\CCCCN3[C@H]12 (some centres unmarked) [MZD, manzamine D] | 0.23 | 611 ± 342 pg of TXB2 per 200,000 microglia per 70 min | > 10 | 3,613 ± 469 pg of TXB2 per 200,000 microglia per 70 min | < 0.1 | – | > 10 | 22.2 ± 2 | 18.8 % of control | OPZ-stimulated TXB2 generation, % of control [3]: 79.9 % of control; PMA-stimulated O2^- release, % of control ([4]; at 0.1 μM): 14 % of control; PMA-stimulated O2^- released ([4]; at 0.1 μM): 0.7 ± 0.7 nmol of O2^- per 200,000 microglia per 70 min; effect on OPZ-stimulated O2^- generation [5]: did not affect
6 | O=C1CCCN2[C@@H](CC1)C[C@]13CN4CCCC/C=C\CC[C@](O)(C=C(c5nccc6c5[nH]c5c(O)cccc56)C1CC4)[C@H]23 (some centres unmarked) [MZF, manzamine F] | > 10 | 3,202 ± 1,139 pg of TXB2 per 200,000 microglia per 70 min | > 10 | 3,317 ± 121 pg of TXB2 per 200,000 microglia per 70 min | > 10 | 12.8 ± 1.6 nmol of O2^- per 200,000 microglia per 70 min | > 10 | 20.1 ± 3.6 | 104.1 ± 24.7 % of control | inhibition at 10 µM [3]: 26.2%; PMA-stimulated O2^- release, % of control ([4]; at 10 μM): 113 ± 14.5 % of control; inhibition at 10 µM ([5]; Rattus norvegicus, Microglia, at 10 μM, non-statistically significant): 15.7%
7 | C1=C\CCCCN(CCc2nccc3c2[nH]c2ccccc23)CCCC/1 [MZC, manzamine C] | 2.98 | 677 ± 293 pg of TXB2 per 200,000 microglia per 70 min | 3.34 | 1,345 ± 160 pg of TXB2 per 200,000 microglia per 70 min | 3.43 | 3.7 ± 2.2 nmol of O2^- per 200,000 microglia per 70 min | 9.3 | 20.7 ± 3.1 | 19.6 % of control | OPZ-stimulated TXB2 generation, % of control [3]: 29.8 % of control; PMA-stimulated O2^- release, % of control ([4]; at 10 μM): 36.1 % of control; OPZ-stimulated O2^- generation, % of control ([5]; at 10 μM): 41.6 % of control; OPZ-stimulated O2^- released ([5]; at 10 μM): 3.9 ± 0.3 O2^- nmol per 200,000 microglia per 70 min
8 | COc1ccc2c(c1)c(CC(=O)O)c(C)n2C(=O)c1ccc(Cl)cc1 [indomethacin] | – | – | – | – | – | – | – | – | – | IC50 [1, 8]: 0.001 µM
9 | C1=C\CC[C@]23CN4CCCC/C=C\CC[C@@]5(O[C@H]5[C@@H](c5nccc6c5[nH]c5ccccc56)[C@@H]2CC4)[C@@H]3NCCCC/1 [MZB, manzamine B] | 1.6 | 546.3 ± 281 pg of TXB2 per 200,000 microglia per 70 min | 1.44 | 1,160 ± 207 pg of TXB2 per 200,000 microglia per 70 min | 3.16 | 2.14 ± 2.14 nmol of O2^- per 200,000 microglia per 70 min | 4.17 | 15.3 ± 2.4 | 15.5 % of control | OPZ-stimulated TXB2 generation, % of control [3]: 25.6 % of control; PMA-stimulated O2^- release, % of control ([4]; at 10 μM): 20 % of control; OPZ-stimulated O2^- generation, % of control ([5]; at 10 μM): 16.5 % of control; OPZ-stimulated O2^- released ([5]; at 10 μM): 1.5 ± 0.7 O2^- nmol per 200,000 microglia per 70 min; concentrations cytotoxic to neonatal brain microglia [7]: above 1 μM
10 | superoxide dismutase: superoxide dismutase (from bovine liver), Sigma | – | – | – | – | – | – | – | – | – | effect on hypoxanthine-xanthine oxidase O2^- generation [6]: abolished
11 | CO[C@]12C[C@@H](COC(=O)c3cncc(Br)c3)CN(C)[C@@H]1Cc1cn(C)c3cccc2c13 [nicergoline] | – | – | – | – | – | – | – | – | – | IC50 (activated rat microglia): 10 to 15 µM
12 | C=CCN1C[C@H](C(=O)N(CCCN(C)C)C(=O)NCC)C[C@@H]2c3cccc4[nH]cc(c34)C[C@H]21 [cabergoline] | – | – | – | – | – | – | – | – | – | IC50 (activated rat microglia): > 100 µM
13 | CC(=O)Oc1ccccc1C(=O)O [acetylsalicylic acid] | – | – | – | – | – | – | – | – | – | IC50 ([1]; COX-1 inhibitor, read-out: IC50, LPS-induced microglia PGE2 synthesis): 3.12 to 10 µM
